Test results reported in publication PMC10671360, “In Silico and In Vitro Study towards the Rational Design of 4,4′-Disarylbisthiazoles as a Selective α-Synucleinopathy Biomarker” (International Journal of Molecular Sciences, 2023).

Assays:
[1] = biological target: tau fibrils (Homo sapiens, UniProt P10636); experiment: Competition binding assay against [^3H]DCVJ, tau fibrils; settings: [^3H]DCVJ was used (20 nM); tau aggregates 125 nM
Description: Recombinant tau monomer (R&D systems, Minneapolis, MN, USA) was dissolved in 20 mM of Tris HCl, pH 8.0, 100 mM of NaCl, 25 μM of low-MW heparin, and 0.5 mM of dithiothreitol to a final concentration of 300 µg/mL. The mixture was incubated with shaking at 900 rpm at 37 °C for 48 h. To separate the non-aggregated monomers from the formed fibrils, the reaction mixture was centrifuged at 12,000× g for 5 min, and the resulting pellet was washed three times with 500 μL of 20 mM Tris-HCl, pH 7.4. The supernatants from the three centrifugation steps were combined, and the concentration of the monomer in the resulting supernatant was determined in a BCA assay(Thermo Fisher Scientific, Waltham, MA, USA) (with a BSA standard curve). Determination of the concentration of fibrils formed was carried out by subtracting the amount of tau peptide monomer in the supernatant from the initial amount used for fibrillation. The pellets of the fibrils obtained above (Section 4.2.1) were resuspended in 20 mM of Tris-HCl, pH 7.4 and diluted as needed for the binding assays. A fixed concentration of [^3H]DCVJ (10 nM) and α-synuclein aggregates (125 nM), prepared as described above (Section 4.2.3), was used with different final concentrations of the DABTAs from 0.01 to 100 nM (see SI Figure S1). The experiment was carried out in quintuplicate for each concentration. The mixture was incubated for 2 h in a final volume of 200 μL per well after dilution with 20 mM of Tris-HCl, pH 7.4. The incubated mixtures were filtered through a Perkin Elmer GF/B glass filter via a TOMTEC cell harvester and immediately washed thrice with 1 mL of deionized water. The filters containing the bound ligands were dried and afterwards mixed with 3 mL of BetaPlate Scint solution (Perkin Elmer Life Sciences, Waltham, MA, USA) and left there for 2 h before counting in a Wallac 1450 MicroBeta TriLux Liquid Scintillation Counter (PerkinElmer Life Sciences, Waltham, MA, USA). For the determination of the inhibition constants, data were analyzed using GraphPad Prism software (version 7.0) to obtain IC50 values by fitting the data to the equation Y = bottom + (top − bottom)/(1 + 10(x − log IC50)). Ki values were calculated from IC50 values using the equation Ki = IC50/(1 + [radioligand]/Kd). […] Further protocol was carried out as for [^3H]DCVJ (see SI Figure S3). Fixed concentrations (125 nM) of Aβ1−42, tau aggregates, and [^3H]DCVJ (10 nM and 20 nM for the Aβ1−42 and tau competition experiments respectively) were used with different concentrations of cold versions of the tracers from 1 to 1000 nM (See SI Figure S2). The experiment was performed in quadruplicate for each concentration. Further procedures followed the same already described in Section 4.2.3.1.

[2] = biological target: T1, Aβ1−42 fibrils (Homo sapiens, UniProt P05067); experiment: Competition binding assay against [^3H]DCVJ, Aβ1−42 fibrils; settings: [^3H]DCVJ was used (10 nM); Aβ1−42 aggregates 125 nM; read-out: Ki Aβ
T1 construct: 1 mg of β-amyloid1–42 peptide (Abcam, Cambridge, UK); purchased Abcam
T1 sequence (P05067 672-713): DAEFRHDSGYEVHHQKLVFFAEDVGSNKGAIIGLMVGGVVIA
Description: (§1) After the dissolution of 1 mg of β-amyloid1–42 peptide (Abcam, Cambridge, UK) in 50 μL of DMSO, 925 μL of Milli-Q® water was added to it, and the mixture was stirred. Finally, 25 μL of 1M Tris HCl, pH 7.4 was added to bring the final peptide concentration to 1 mg/mL. The mixture was then left to incubate at 37 °C for 30 h with shaking at 900 rpm. To separate the non-aggregated monomers from the formed fibrils, the reaction mixture was centrifuged at 12,000× g for 5 min, and the resulting pellet was washed three times with 500 μL of 20 mM Tris-HCl, pH 7.4. The supernatants from the three centrifugation steps were combined, and the concentration of the monomer in the resulting supernatant was determined in a BCA assay (Thermo Fisher Scientific, Waltham, MA, USA) (with a BSA standard curve). Determination of the concentration of fibrils formed was carried out by subtracting the amount of β-amyloid1−42 peptide monomer in the supernatant from the initial amount used for fibrillation.
(§2) The pellets of the fibrils obtained above (Section 4.2.1) were resuspended in 20 mM of Tris-HCl, pH 7.4 and diluted as needed for the binding assays.
(§3) A fixed concentration of [^3H]DCVJ (10 nM) and α-synuclein aggregates (125 nM), prepared as described above (Section 4.2.3), was used with different final concentrations of the DABTAs from 0.01 to 100 nM (see SI Figure S1). The experiment was carried out in quintuplicate for each concentration. The mixture was incubated for 2 h in a final volume of 200 μL per well after dilution with 20 mM of Tris-HCl, pH 7.4. The incubated mixtures were filtered through a Perkin Elmer GF/B glass filter via a TOMTEC cell harvester and immediately washed thrice with 1 mL of deionized water. The filters containing the bound ligands were dried and afterwards mixed with 3 mL of BetaPlate Scint solution (Perkin Elmer Life Sciences, Waltham, MA, USA) and left there for 2 h before counting in a Wallac 1450 MicroBeta TriLux Liquid Scintillation Counter (PerkinElmer Life Sciences, Waltham, MA, USA). For the determination of the inhibition constants, data were analyzed using GraphPad Prism software (version 7.0) to obtain IC50 values by fitting the data to the equation Y = bottom + (top − bottom)/(1 + 10(x − log IC50)). Ki values were calculated from IC50 values using the equation Ki = IC50/(1 + [radioligand]/Kd). […] Further protocol was carried out as for [^3H]DCVJ (see SI Figure S3).
Fixed concentrations (125 nM) of Aβ1−42, tau aggregates, and [^3H]DCVJ (10 nM and 20 nM for the Aβ1−42 and tau competition experiments respectively) were used with different concentrations of cold versions of the tracers from 1 to 1000 nM (See SI Figure S2). The experiment was performed in quadruplicate for each concentration. […]

[3] = biological target: T1, Aβ1−42 fibrils; experiment: Competition binding assay against [^3H]PiB, Aβ1−42 fibrils; settings: read-out: Ki Aβ
Description: as §1, §2, §3
Further procedures followed the same already described in Section 4.2.3.1 (See SI Figure S4).

Sequence of tau fibrils (P10636 2-758): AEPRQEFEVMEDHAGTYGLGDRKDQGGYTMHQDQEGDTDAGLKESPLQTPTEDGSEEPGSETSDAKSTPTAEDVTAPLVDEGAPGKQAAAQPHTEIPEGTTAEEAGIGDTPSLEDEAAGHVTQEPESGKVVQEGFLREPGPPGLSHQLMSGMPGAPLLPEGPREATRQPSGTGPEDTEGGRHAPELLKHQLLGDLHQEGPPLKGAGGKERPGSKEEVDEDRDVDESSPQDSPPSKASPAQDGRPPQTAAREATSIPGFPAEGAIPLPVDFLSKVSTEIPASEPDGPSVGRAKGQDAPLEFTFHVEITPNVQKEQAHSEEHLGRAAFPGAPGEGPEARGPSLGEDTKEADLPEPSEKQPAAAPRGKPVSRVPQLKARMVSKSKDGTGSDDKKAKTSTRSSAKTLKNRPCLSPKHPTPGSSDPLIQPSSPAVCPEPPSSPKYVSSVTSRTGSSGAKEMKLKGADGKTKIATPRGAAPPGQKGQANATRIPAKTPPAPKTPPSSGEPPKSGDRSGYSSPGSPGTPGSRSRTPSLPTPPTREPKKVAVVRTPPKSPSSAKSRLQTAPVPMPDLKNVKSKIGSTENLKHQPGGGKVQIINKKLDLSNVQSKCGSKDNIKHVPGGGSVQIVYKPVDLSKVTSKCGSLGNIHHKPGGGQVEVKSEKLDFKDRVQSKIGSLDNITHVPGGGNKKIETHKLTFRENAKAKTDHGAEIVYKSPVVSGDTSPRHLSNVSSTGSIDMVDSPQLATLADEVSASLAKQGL

| Compound | Ki [1] [nM] | Ki [2] [nM] | Ki [3] [nM] |
| --- | --- | --- | --- |
| Fc1ncc(-c2csc(-c3nc(-c4cnc5c(c4)OCO5)cs3)n2)cn1 [d10] | > 1000 | 407 | 214 |
| FCCOc1cnc(-c2csc(-c3nc(-c4cnc5c(c4)OCO5)cs3)n2)nc1 [f4, 6-(4′-(5-(2-Fluoroethoxy)pyrimidin-2-yl)-[2,2′-bithiazol]-4-yl)-[1,3]dioxolo[4,5-b]pyridine] | 465 | 251 | 185 |
| FCCOc1cnc(-c2csc(-c3nc(-c4ccc5c(c4)OCO5)cs3)n2)nc1 [f5, 4-(Benzo[d][1,3]dioxol-5-yl)-4′-(5-(2-fluoroethoxy)pyrimidin-2-yl)-2,2′-bithiazole] | 515 | 134 | 155 |
| FCCOCCOc1cnc(-c2csc(-c3nc(-c4ccc5c(c4)OCO5)cs3)n2)nc1 [f6, 4-(Benzo[d][1,3]dioxol-5-yl)-4′-(5-(2-(2-fluoroethoxy)ethoxy)pyrimidin-2-yl)-2,2′-bithiazole] | 437 | 198 | 96.7 |
